# Patent US8691184B2, “Bcl-2/Bcl-xL inhibitors and therapeutic methods using the same” (The Regents of the University of Michigan, priority 2011, dated 2014)
# Tests used:
# [1] = target: Bcl-2 (Homo sapiens, UniProt P10415); test: FP-based binding assay, Bcl-2
# [2] = tested on: RS4;11 cell line; test: Cytochrome c and Smac release assay, RS4;11; type: cell-based; conditions: RS4;11, 100 nM, within 30 minutes
# Description: (§1) Four million of H146 or RS4;11 cells were treated with compounds at 37° C. in an atmosphere of 95% air and 5% CO2 for the indicated time points, washed with PBS and re-suspended in 100 μl of digitonin buffer (75 mM NaCl, 8 mM Na2HPO4, 1 mM NaH2PO4, 1 mM EDTA, 350 μg/ml digitonin, and 250 mM sucrose). Cytosolic fractions were separated from organelle membrane fraction by centrifugation at 13,000 rpm for 1 min. The cytosolic fractions were resolved on a 12% SDS-PAGE and probed using anti-cytochrome c antibody (BD Biosciences) and anti-Smac (Cell Signaling Technology, Danvers, Mass.) antibody.
# (§2) Potent and bona fide Bcl-2/Bcl-xL inhibitors are predicted to induce apoptosis in cancer cells by binding to cellular Bcl-2 and Bcl-xL proteins, antagonizing their anti-apoptotic function and triggering rapid release of Smac and cytochrome c from mitochondria. Furthermore, the release of Smac and cytochrome c should take place before apoptosis. Accordingly, compound 150 was tested for its ability to induce cytochrome c and Smac release in the RS4;11 and H146 cell lines.
# [3] = tested on: H146 small-cell lung cancer cell line; test: Cell death assay (trypan blue), H146; type: cell-based; conditions: for H146 cells undergoing cell death: 24-hr treatment, trypan blue
# Description: Cell death assay was performed using a Trypan blue exclusion test of cell viability. One million cells were seeded in 6-well plates and incubated at 37° C. in an atmosphere of 95% air and 5% CO2 with or without compounds for the indicated time points. At the end of treatment, cells were collected and centrifuged at 1000 rpm for 5 minutes. The cell pellets were re-suspended in PBS and mixed with 0.4% Trypan blue (Invitrogen) at 1:1 dilution to determine cell viability using Olympus CKX41 microscope (Olympus, Center Valley, Pa.).
# [4] = tested on: RS4;11 cell line; test: Western blot of PARP and caspase-3 cleavage, RS4;11; type: cell-based; conditions: as low as 100 nM, 8-hr treatment
# Description: (§3) Cells were lysed with lysis buffer (PBS containing 1% NP40, 0.5% Na-deoxycholate, and 0.1% SDS) supplemented with protease inhibitors (α-complete, Roche). The protein extracts were quantified using a calorimetric assay (Bradford Reagent) (BioRad, Hercules, Calif.). Proteins were electrophoresed onto 4-20% SDS-PAGE gels (Invitrogen) and transferred onto polyvinylidene difluoride membranes (Bio-Rad). Following blocking in 5% milk, membranes were incubated with a specific primary antibody, washed, and incubated with horseradish peroxidase-linked secondary antibody (Pierce). The signals were visualized with the chemiluminescent horseradish peroxidase antibody detection reagent (Denville Scientific).
# [5] = tested on: RS4;11 cells; test: Cell growth assay (WST-8), RS4;11; type: cell-based; conditions: Homo sapiens, RS4-11, 96 h; Table 3, 4 days; read-out: Cell Growth Inhibition (IC50 ± SD) RS4; 11
# Description: (§4) RS4;11 and H146 cells were seeded in 96-well cell culture plates at a density of 10,000 cells/well with serially diluted compounds and incubated at 37° C. in an atmosphere of 95% air and 5% CO2 for 4 days. Cell viability was determined using the WST-8 (2-(2-methoxy-4-nitrophenyl)-3-(4-nitrophenyl)-5-(2,4-disulfophenyl)-2H-tetrazolium, monosodium salt) based Cell Counting-8 Kit (Dojindo Molecular Technologies, Inc., Rockville, Md.) according to the manufacture's instruction. Briefly, WST-8 was added to each well at a final concentration of 10% (v/v), and then the plates were incubated at 37° C. for 1˜2 hours for color development. The absorbance was measured at 450 nm using a SPECTRAmax PLUS plate reader (Molecular Devices, Sunnyvale, Calif.). The half maximal inhibitory concentration (IC50) was calculated using the GraphPad Prism 5 software (GraphPad Software, La Jolla, Calif.).
# [6] = tested on: H146 cells; test: Cell growth assay (WST-8), H146; type: cell-based; conditions: Homo sapiens, NCI-H146, 96 h; Table 3, 4 days; read-out: Cell Growth Inhibition (IC50 ± SD) H146
# Description: as §4
# [7] = tested on: H146 cell line; test: Western blot of PARP and caspase-3 cleavage, H146; type: cell-based; conditions: as low as 100 nM, 8-hr treatment
# Description: as §3
# [8] = tested on: ML-2 AML cell line; test: Apoptosis assay (Annexin-V/PI flow cytometry), ML-2; type: cell-based; conditions: 300 nM, 24 hr
# Description: (§5) Apoptosis assay was performed using the Annexin-V-FLUOS Staining kit (Roche Diagnostics, Indianapolis, Ind.) according to the manufacturer's instruction. Briefly, cells were treated with compounds for the indicated time points, harvested and washed with PBS. Cells were stained with Annexin V-FITC and Propidium iodide for 15 minutes at room temperature in the dark before analyzed with a BD Biosciences FACSCaliburs (Becton Dickinson).
# [9] = target: Bcl-xL (Homo sapiens, UniProt Q07817); test: FP-based binding assay, Bcl-xL; conditions: Table 2, FP-based assay
# Sequence of Bcl-xL (Q07817 whole entry): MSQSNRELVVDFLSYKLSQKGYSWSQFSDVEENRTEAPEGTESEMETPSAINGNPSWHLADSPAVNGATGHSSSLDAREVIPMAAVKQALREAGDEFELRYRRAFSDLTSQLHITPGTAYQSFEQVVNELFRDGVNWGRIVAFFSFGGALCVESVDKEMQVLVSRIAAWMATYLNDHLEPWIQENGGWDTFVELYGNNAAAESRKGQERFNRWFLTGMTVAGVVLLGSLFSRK
# [10] = tested on: ML-2 cell line; test: Western blot of PARP and caspase-3 cleavage, ML-2; type: cell-based; conditions: as low as 100 nM, 8-hr treatment
# Description: as §3
# [11] = Toxicity (maximum tolerated dose) in SCID mice; type: in vivo; conditions: for Weight loss at higher dose: SCID mice; for Weight loss or other signs of toxicity: female SCID mice, intravenously, daily, 5-times a week for 2 weeks
# Description: These experiments established the maximum tolerated doses (MTD).
# [12] = tested on: RS4;11 cell line; test: Apoptosis assay (Annexin-V/PI flow cytometry), RS4;11; type: cell-based; conditions: for RS4;11 cells undergoing apoptosis: within 4 hrs
# Description: as §5
# [13] = tested on: cellular Bcl-2/Bcl-xL; test: Competitive pull-down against Biotin-150 in ML-2 and H146 cell lysates; type: binding; conditions: competitive experiment
# [14] = tested on: H146 cell line; test: Cytochrome c and Smac release assay, H146; type: cell-based; conditions: H146, 300 nM, within 2 hr
# Description: as §1, §2
# [15] = tested on: ML-2 acute myeloid leukemia (AML) cell line; test: Cell growth assay (WST-8), ML-2; type: cell-based; conditions: Table 3; read-out: Cell Growth Inhibition (IC50 ± SD) ML-2
# [16] = tested on: RS4;11 xenograft tumors; test: Apoptosis induction in RS4;11 xenograft tumors; type: in vivo, SCID mice; conditions: RS4;11 model, single dose
# Description: (§6) Compounds 150, 133, and 169 were tested for their toxicity in severe combined immunodeficiency (SCID) mice. SCID mice bearing xenograft tumors were treated with vehicle control, or a single dose of a compound, and tumors were removed at different time-points for western blot analysis of cleavage of PARP (CL-PARP) and caspase-3 (CL Cas-3). The ability of compounds 150 and 169 to induce apoptosis at their MTD in RS4;11 or H146 xenograft tumors in SCID mice was tested. In these experiments, RS4;11 or H146 tumors were allowed to grow to 200-300 mm^3 in female SCID mice. A single dose of the compound was administered to the animals and tumor tissues were analyzed for cleavage of PARP and caspase-3.
# [17] = tested on: H146 xenograft tumors; test: Apoptosis induction in H146 xenograft tumors; type: in vivo, SCID mice
# Description: as §6
# [18] = tested on: H146 xenograft tumors; test: Antitumor activity in the H146 xenograft tumor model; type: in vivo
# Description: The antitumor activity of compound 169 in the H146 xenograft tumor model also was tested. […] At the end of the treatment (day 39), compound 169 inhibited the tumor growth by 100% (p<0.0001, t-test).
# Sequence of Bcl-2 (P10415 whole entry): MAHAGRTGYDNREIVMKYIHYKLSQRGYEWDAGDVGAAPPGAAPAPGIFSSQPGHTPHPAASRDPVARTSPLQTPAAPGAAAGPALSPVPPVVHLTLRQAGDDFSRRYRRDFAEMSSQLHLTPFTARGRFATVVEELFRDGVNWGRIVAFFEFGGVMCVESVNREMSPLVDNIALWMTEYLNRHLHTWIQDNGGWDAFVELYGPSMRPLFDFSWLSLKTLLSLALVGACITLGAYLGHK
smiles,measurement,setting,value
Cc1c(C(=O)NCCCN2CCN(C)CC2)c(-c2cccc(N3CCN(c4ccc(NS(=O)(=O)c5ccc(N[C@H](CCN(C)C)CSc6ccccc6)c([N+](=O)[O-])c5)cc4)CC3)c2)c(-c2ccc(Cl)cc2)n1C [Compound 150],Ki,[1],< 1 nM
same,IC50,"[1]; read-out: Bcl-2 IC50 ± SD, Table 2, FP-based assay",2 ± 0.6 nM
same,Release of cytochrome c and Smac from mitochondria,[2],robust release of cytochrome c and Smac
same,H146 cells undergoing cell death,[3]; 30 nM,40%
same,H146 cells undergoing cell death,[3]; 100 nM,> 70%
same,Cell death induction in H146,[3]; trypan blue assay,effectively induced cell death
same,Cleavage of PARP and caspase-3,[4],highly effective in induction of cleavage of PARP and caspase-3
same,IC50,[5],38 ± 24 nM
same,IC50,[6],102 ± 44 nM
same,Cleavage of PARP and caspase-3,[7],highly effective in induction of cleavage of PARP and caspase-3
same,ML-2 cells undergoing apoptosis,[8],about 50%
same,IC50,[9]; read-out: Bcl-xL IC50 ± SD,9 ± 2 nM
same,Ki,"[9]; read-out: Bcl-xL Ki ± SD, no unit printed in this row",2.4 ± 0.5 nM
same,Cleavage of PARP and caspase-3,[10],highly effective in induction of cleavage of PARP and caspase-3
same,Weight loss at higher dose,[11]; 50 mg/kg,caused weight loss
same,Weight loss or other signs of toxicity,[11]; 25 mg/kg,no or minimal weight loss or other signs of toxicity
same,RS4;11 tumor cells undergoing apoptosis,"[12]; 100 nM, 16 hr time-point",> 50%
same,RS4;11 cells undergoing apoptosis,"[12]; 100 nM, Annexin-V/PI",30%
same,RS4;11 cells undergoing apoptosis,"[12]; 300 nM, Annexin-V/PI",60%
same,Apoptosis induction in RS4;11,"[12]; time- and dose-dependent, Annexin-V/PI",highly effective in induction of apoptosis
same,Blocking of interaction of cellular Bcl-2/Bcl-xL with Biotin-150,[13],blocked the interaction of cellular Bcl-2/Bcl-xL and Biotin-150 in a dose-dependent manner
same,Release of cytochrome c and Smac from mitochondria,[14],strong release of cytochrome c and Smac
same,IC50,[15],185 ± 84 nM
"Cc1c(C(=O)O)c(-c2cccc(N3CCN(c4ccc(NS(=O)(=O)c5ccc(N[C@H](CCN6CCC(O)CC6)CSc6ccccc6)c(S(=O)(=O)C(F)(F)F)c5)cc4)CC3)c2)c(-c2ccc(Cl)cc2)n1C.Cl [Compound 169, (R)-5-(4-chlorophenyl)-4-(3-(4-(4-(4-((4-(4-hydroxypiperidin-1-yl)-1-(phenylthio)butan-2-yl)amino)-3-((trifluoromethyl)sulfonyl)phenylsulfonamido)phenyl)piperazin-1-yl)phenyl)-1,2-dimethyl-1H-pyrrole-3-carboxylic acid]",Cleavage of PARP and caspase-3 in tumor tissues,[16],strong effect in induction of cleavage of PARP and caspase-3
same,Cleavage of PARP and caspase-3 in xenograft tumor tissues,"[17]; H146, single-dose 50 mg/kg IV, 3 hr and 6 hr-time points",induced cleavage of PARP and caspase-3
same,Cleavage of PARP and caspase-3 in tumor tissues,"[17]; H146 model, single dose",strong effect in induction of cleavage of PARP and caspase-3
same,Weight loss at higher dose,[11]; 75 mg/kg,caused weight loss
same,Weight loss or other signs of toxicity,[11],no or minimal weight loss or other signs of toxicity
same,Tumor growth inhibition versus vehicle-treated tumors,"[18]; day 53, 2 weeks after the treatment was stopped, p=0.0001",79%
same,Other signs of toxicity,[18]; during the entire experiment,no other signs of toxicity
same,Weight loss,[18]; during the entire experiment,< 3%
same,Tumor growth inhibition,"[18]; end of the treatment (day 39), p<0.0001",100%
